Counter-ions that a name gives are not always drawn.
Biological target: inducible nitric oxide synthase (iNOS) (Homo sapiens, UniProt P35228)
Assay: NO release
Format: cell-based

Chain of inducible nitric oxide synthase (iNOS) (P35228 whole entry): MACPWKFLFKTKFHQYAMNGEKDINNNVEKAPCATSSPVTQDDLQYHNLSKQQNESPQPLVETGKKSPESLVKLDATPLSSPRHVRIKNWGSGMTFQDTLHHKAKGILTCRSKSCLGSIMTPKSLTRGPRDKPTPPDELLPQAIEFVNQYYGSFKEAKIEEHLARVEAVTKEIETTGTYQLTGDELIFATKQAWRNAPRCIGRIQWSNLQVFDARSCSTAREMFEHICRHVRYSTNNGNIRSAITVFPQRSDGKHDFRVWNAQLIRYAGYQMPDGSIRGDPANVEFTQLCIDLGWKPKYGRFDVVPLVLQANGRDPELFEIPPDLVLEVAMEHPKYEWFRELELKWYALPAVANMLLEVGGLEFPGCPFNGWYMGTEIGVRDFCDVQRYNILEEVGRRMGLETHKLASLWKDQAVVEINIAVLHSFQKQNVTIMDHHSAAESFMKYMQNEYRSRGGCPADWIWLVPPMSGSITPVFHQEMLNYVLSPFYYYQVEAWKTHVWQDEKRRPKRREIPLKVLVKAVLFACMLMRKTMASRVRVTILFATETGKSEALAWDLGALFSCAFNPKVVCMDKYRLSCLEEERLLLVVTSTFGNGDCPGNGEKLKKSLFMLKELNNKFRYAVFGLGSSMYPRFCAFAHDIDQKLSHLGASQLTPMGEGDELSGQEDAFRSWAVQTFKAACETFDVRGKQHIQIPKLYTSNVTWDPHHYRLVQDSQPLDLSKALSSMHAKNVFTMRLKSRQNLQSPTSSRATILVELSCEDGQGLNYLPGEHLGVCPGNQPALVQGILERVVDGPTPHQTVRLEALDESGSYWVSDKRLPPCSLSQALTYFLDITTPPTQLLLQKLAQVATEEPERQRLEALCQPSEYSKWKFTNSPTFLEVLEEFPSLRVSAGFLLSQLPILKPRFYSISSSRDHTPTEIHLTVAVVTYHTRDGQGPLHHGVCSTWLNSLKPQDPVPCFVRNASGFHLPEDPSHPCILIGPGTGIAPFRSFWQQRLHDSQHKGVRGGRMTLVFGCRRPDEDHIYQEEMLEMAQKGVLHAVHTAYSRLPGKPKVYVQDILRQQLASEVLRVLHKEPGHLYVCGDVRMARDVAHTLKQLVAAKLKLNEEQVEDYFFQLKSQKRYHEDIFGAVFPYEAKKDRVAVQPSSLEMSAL

Q: With `CC(=N)NCCCC[C@H](N)C(=O)O` [L-nil, N6-(1-Iminoethyl)-L-lysine-dihydrochloride] as the compound, how does the IC50 read?
A: 595 µM

From PMC2858983 (Clinical cancer research : an official journal of the …, 2010)
